Data reported in PMC12775434, “Ultra-large virtual screening unveils potent agonists of the neuromodulatory orphan receptor GPR139” (Nature Communications, 2025).
Values joined by “and” are separate entries in the source; they are usually repeats but may differ in a detail not shown here. Equal entries are not always repeated. Where two headings read alike, the source gives them in different places.

Columns and labels:
Assay type in all cases: cell-based
[1] = target: T1, human muscarinic acetylcholine M1 receptor (M1R) (Homo sapiens, UniProt P11229); experiment: Ca2+ mobilization counter-screen in M1R-CHOk1 cells; conditions: individual replicates (Supplementary Figure 5);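 note: 10 µM test compound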
T1 sequence (P11229 1-460): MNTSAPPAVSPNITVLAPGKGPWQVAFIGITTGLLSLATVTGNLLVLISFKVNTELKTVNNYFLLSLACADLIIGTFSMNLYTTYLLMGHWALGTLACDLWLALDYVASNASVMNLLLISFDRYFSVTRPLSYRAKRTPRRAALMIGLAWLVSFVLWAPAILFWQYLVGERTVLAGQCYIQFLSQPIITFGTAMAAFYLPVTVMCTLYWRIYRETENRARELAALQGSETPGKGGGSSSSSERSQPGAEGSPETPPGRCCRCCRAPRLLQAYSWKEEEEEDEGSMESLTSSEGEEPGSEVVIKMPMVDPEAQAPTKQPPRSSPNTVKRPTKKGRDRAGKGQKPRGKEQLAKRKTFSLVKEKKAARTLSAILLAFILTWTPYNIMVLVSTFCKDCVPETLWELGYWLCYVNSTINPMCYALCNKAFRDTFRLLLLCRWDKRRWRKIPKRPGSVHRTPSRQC
Procedure, shortened: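 Fluorescence (ex 485 nm, em 525 nm) recorded at 37 °C after automated compound addition to CHO-K1 cells stably expressing M1R. Cells were dye-loaded with 2 µM Fluo-4 AM for 1 h at 37 °C, with 2.5 mM probenecid present; final DMSO at most 0.3%.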

GPR139 [2] = target: T2, GPR139 (Homo sapiens, UniProt Q6DWJ6); experiment: Ca2+ mobilization assay, antagonist mode (EC80 800 nM Lundbeck Cmp 1a after 20 min preincubation), GPR139-CHOk1; conditions: individual replicates (Supplementary Figure 4)
T2 sequence (Q6DWJ6 1-353): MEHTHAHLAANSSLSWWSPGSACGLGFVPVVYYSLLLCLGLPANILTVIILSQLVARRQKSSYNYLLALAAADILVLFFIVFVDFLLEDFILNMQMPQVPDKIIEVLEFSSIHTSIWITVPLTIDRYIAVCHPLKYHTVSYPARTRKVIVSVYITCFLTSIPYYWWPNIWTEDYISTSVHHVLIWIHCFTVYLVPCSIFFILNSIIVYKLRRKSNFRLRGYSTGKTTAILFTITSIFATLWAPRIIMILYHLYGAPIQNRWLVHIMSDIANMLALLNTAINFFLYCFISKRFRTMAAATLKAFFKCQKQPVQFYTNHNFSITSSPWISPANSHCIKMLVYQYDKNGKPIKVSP
Procedure, shortened: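 Antagonist mode: 800 nM (EC80) reference agonist Lundbeck Cmp 1a added following 20 min pre-incubation with 10 µM compound. GPR139-CHOk1 cells, Fluo-4 dye, probenecid-containing HEPES buffer pH 7.4; intracellular Ca2+ measured at 37 °C (ex 485, em 525 nm).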

GPR139 [3] = target: T2, GPR139; experiment: Ca2+ mobilization assay, agonist mode, stable GPR139-CHOk1 cell line; conditions: for Emax: normalized to Lundbeck Cmp 1a, read-out: Emax (%) Ca2+
Procedure, shortened: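 Agonist activity of compounds is assessed in stably transfected CHO-K1 cells using the calcium dye Fluo-4 at 37 °C in HEPES-buffered HBSS (pH 7.4). Efficacy is expressed relative to the reference agonist Lundbeck Cmp 1a, set as 100%.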

[4] = Agonist mode, individual replicates (Supplementary Figure 4)
[5] = Supplementary Table 2, mean ± SEM, read-out: pEC50 Ca2+ (converted)
[6] = Supplementary Table 2, mean ± SEM
[7] = log [Compound] M = -4.5, individual replicate columns
[8] = log [Compound] M = -5.0, individual replicate columns
[9] = log [Compound] M = -5.5, individual replicate columns
[10] = log [Compound] M = -6.0, individual replicate columns
[11] = log [Compound] M = -6.5, individual replicate columns
[12] = log [Compound] M = -7.0, individual replicate columns
[13] = log [Compound] M = -7.5, individual replicate columns
[14] = log [Compound] M = -8.0, individual replicate columns
[15] = log [Compound] M = -8.5, individual replicate columns
[16] = log [Compound] M = -9.0, individual replicate columns

fold decrease in potency relative to a similar phenyl substituted compound (1.3) (GPR139 [3]; Ca2+ mobilization EC50)	EC50 (GPR139 [3]; [5]) [nM]	Emax (GPR139 [3]; [6]) [%]	EC50 (GPR139 [3]; GPR139-CHOk1, read-out: EC50, Ca2+ mobilization) [nM]	SMILES	Ca2+ signal (% of Carbachol) [1]	Ca2+ signal (% of Cmp 1a) (GPR139 [2])	Ca2+ signal (% of Cmp 1a) (GPR139 [3]; [4])	Ca2+ signal (% of Cmp 1a) (GPR139 [3]; [7])	Ca2+ signal (% of Cmp 1a) (GPR139 [3]; [8])	Ca2+ signal (% of Cmp 1a) (GPR139 [3]; [9])	Ca2+ signal (% of Cmp 1a) (GPR139 [3]; [10])	Ca2+ signal (% of Cmp 1a) (GPR139 [3]; [11])	Ca2+ signal (% of Cmp 1a) (GPR139 [3]; [12])	Ca2+ signal (% of Cmp 1a) (GPR139 [3]; [13])	Ca2+ signal (% of Cmp 1a) (GPR139 [3]; [14])	Ca2+ signal (% of Cmp 1a) (GPR139 [3]; [15])	Ca2+ signal (% of Cmp 1a) (GPR139 [3]; [16])
4- to 16 fold	794	98 ± 3		Cc1ccnc(-c2nc(CC(=O)NC(C)c3ccccc3)no2)c1 (stereo not shown) [Compound 1.17, CC(C1=CC=CC=C1)NC(CC2=NOC(C3=NC=CC(C)=C3)=N2)=O]	-5.46 % of Carbachol and 6 % of Carbachol and 7.55 % of Carbachol	4 % of Cmp 1a and 35 % of Cmp 1a and 2.33 % of Cmp 1a	56 % of Cmp 1a and 85 % of Cmp 1a and 81 % of Cmp 1a	97 % of Cmp 1a (2×) and 99 % of Cmp 1a and 98 % of Cmp 1a and 90 % of Cmp 1a	111 % of Cmp 1a and 99 % of Cmp 1a and 92 % of Cmp 1a and 73 % of Cmp 1a and 91 % of Cmp 1a	133 % of Cmp 1a and 107 % of Cmp 1a and 62 % of Cmp 1a and 54 % of Cmp 1a and 75 % of Cmp 1a	82 % of Cmp 1a and 74 % of Cmp 1a and 57 % of Cmp 1a and 42 % of Cmp 1a and 56 % of Cmp 1a	39 % of Cmp 1a and 41 % of Cmp 1a and 22 % of Cmp 1a and 13 % of Cmp 1a and 21 % of Cmp 1a	27 % of Cmp 1a and 24 % of Cmp 1a and 4.3 % of Cmp 1a and 2.59 % of Cmp 1a and 7 % of Cmp 1a	12 % of Cmp 1a (2×) and -2.74 % of Cmp 1a and 7 % of Cmp 1a and 4.7 % of Cmp 1a	7 % of Cmp 1a and 3 % of Cmp 1a and -1 % of Cmp 1a and 10 % of Cmp 1a and 2.65 % of Cmp 1a	7 % of Cmp 1a and 1.19 % of Cmp 1a and 6 % of Cmp 1a (2×) and 3 % of Cmp 1a	11 % of Cmp 1a and 1.67 % of Cmp 1a and 3 % of Cmp 1a and 4.53 % of Cmp 1a and 4.33 % of Cmp 1a
	2510	79 ± 3		Cc1cc(-c2nc(CC(=O)NC(C)c3ccccc3)no2)on1 (stereo not shown) [Compound 1.30, CC(C1=CC=CC=C1)NC(CC2=NOC(C3=CC(C)=NO3)=N2)=O]	4 % of Carbachol and -9 % of Carbachol and 13 % of Carbachol	46 % of Cmp 1a and 28 % of Cmp 1a and 13 % of Cmp 1a	70 % of Cmp 1a and 59 % of Cmp 1a and 57 % of Cmp 1a	86 % of Cmp 1a and 79 % of Cmp 1a and 75 % of Cmp 1a	85 % of Cmp 1a and 68 % of Cmp 1a (2×)	52 % of Cmp 1a and 50 % of Cmp 1a (2×)	-11 % of Cmp 1a and 14 % of Cmp 1a and 19 % of Cmp 1a	-12 % of Cmp 1a and 7 % of Cmp 1a (2×)	-10 % of Cmp 1a and 8 % of Cmp 1a and -3 % of Cmp 1a	-14 % of Cmp 1a and 7 % of Cmp 1a and -8 % of Cmp 1a	-5.33 % of Cmp 1a and 5.67 % of Cmp 1a and 1.67 % of Cmp 1a	-11 % of Cmp 1a and -3 % of Cmp 1a and 1.67 % of Cmp 1a	10 % of Cmp 1a and 7 % of Cmp 1a and 3.67 % of Cmp 1a
		89 ± 15	400	Cc1ccc(-c2nc(CC(=O)NC(C)c3ccccc3)no2)cc1 (stereo not shown) [Compound 1.14, CC(C1=CC=CC=C1)NC(CC2=NOC(C3=CC=C(C)C=C3)=N2)=O]	-9 % of Carbachol and -1 % of Carbachol and 10 % of Carbachol	7 % of Cmp 1a and -0.667 % of Cmp 1a and 13 % of Cmp 1a	71 % of Cmp 1a and 82 % of Cmp 1a and 46 % of Cmp 1a	97 % of Cmp 1a and 92 % of Cmp 1a and 89 % of Cmp 1a and 44 % of Cmp 1a	79 % of Cmp 1a and 86 % of Cmp 1a and 77 % of Cmp 1a and 48 % of Cmp 1a	61 % of Cmp 1a and 79 % of Cmp 1a and 69 % of Cmp 1a and 48 % of Cmp 1a	61 % of Cmp 1a and 52 % of Cmp 1a and 58 % of Cmp 1a and 40 % of Cmp 1a	42 % of Cmp 1a and 32 % of Cmp 1a and 38 % of Cmp 1a and 28 % of Cmp 1a	17 % of Cmp 1a and 12 % of Cmp 1a and 27 % of Cmp 1a and 22 % of Cmp 1a	5.33 % of Cmp 1a and 7 % of Cmp 1a and 30 % of Cmp 1a and -6 % of Cmp 1a	12 % of Cmp 1a and 2.67 % of Cmp 1a (2×) and 0.667 % of Cmp 1a	-1.67 % of Cmp 1a and -4 % of Cmp 1a and 1.67 % of Cmp 1a	8 % of Cmp 1a and 10 % of Cmp 1a and -3.67 % of Cmp 1a and 1 % of Cmp 1a
